Experimental data from US8158591B2, “Anticancer treatment with a combination of taxanes and 13-deoxyanthracyclines” (Gem Pharmaceuticals, LLC, priority 2006, dated 2012).
“Also recorded” adds a separate entry of the source. Marks after values point to notes of the source that are not given here.

Columns and labels:
[1] = cardiotoxicity evaluation in chronically treated rabbits (LVFS, hematocrit, isolated atria dF/dt, histopathology); settings: rabbit; for cardiotoxicity with chronic dosing / HCT % (hematocrit), Post / Histopathology Score / dF/dt (myocardial contractility of isolated atria) / FS % (left ventricular fractional shortening), Post: in vivo; for HCT % (hematocrit), Post / FS % (left ventricular fractional shortening), Post: iv
Method: Twenty-four age matched New Zealand white rabbits weighing 3.0 kg are randomized into four groups (N=6 rabbits/group). […] Doses of drug or vehicle are administered iv into an ear vein two times per week. Serum and blood samples are obtained weekly and M-mode echocardiology performed weekly or every other week to obtain left ventricular fractional shortening (LVFS) to assess cardiac function. Food consumption is measured daily and body weight is measured weekly. Control rabbits are fed the same amount of food as doxorubicin treated rabbits (pair fed). At sacrifice, apex and left ventricular free wall samples are obtained and preserved in 10% buffered formalin for histologic scoring and analysis via light microscopy. Left ventricular tissue samples are also obtained to assess cardiac levels of anthracyclines and metabolites.
At sacrifice, the heart is removed and two types of tissue are sampled from the heart, ventricular apex and left ventricular free wall, and stored in 10% formalin. Each tissue is prepared for three different stains: H&E, toluidine blue, and trichcrome. The tissues are scored (blind) using a modification of the Billingham scale. The scoring scale is from 0-4 with 0=<10% of cells or tissue lesioned, 1 to 10%-19% of cells or tissue lesioned, 2 to 20%-29% of cells or tissue lesioned, 3 to 30%-39% of cells or tissue lesioned, 4 to 40% or more cells or tissue lesioned. The ventricular apex and the left ventricular free wall are analyzed separately. Each receives a score for mononuclear infiltration, fibrosis, and cytoplasmic vacuolization. Thus, each rabbit has six scores, three for the apex (mononuclear infiltration, fibrosis, and cytoplasmic vacuolization) and three for the left ventricular free wall (mononuclear infiltration, fibrosis, and cytoplasmic vacuolization). Each score is obtained by looking at all three stains.
Also at sacrifice, left atria are isolated, divided in half and both halves studied to assess cardiac function in vitro in a tissue bath where afterload and preload remain constant throughout the study. Cardiac contractility is measured as the maximum rate of force development (dF/dt) in response to contractions induced by electrical stimulation via punctuate electrodes located at the base of each muscle preparation.

[2] = tested on: MCF-7 human mammary tumor cells; test: inhibition of growth of MCF-7 cells (tritiated thymidine incorporation); settings: for IC30 for inhibition of growth: MCF-7, 24 hours drug exposure; for fold increase in the cancer growth inhibition potency of paclitaxel: MCF-7, anthracycline at IC30 concentration
Method: (§1) The inhibitory effects of doxorubicin (I), 13-deoxydoxorubicin (II), 5-imino-13-deoxydoxorubicin (III), daunorubicin (IV), 13-deoxydaunorubicin (V), and 5-imino-13-deoxydaunorubicin (VI) on the growth of MCF-7 human mammary tumor cells and P388 murine leukemia cells are measured in vitro. The MCF-7 and P388 cell lines used for these studies are cultured and maintained utilizing the protocol from the American Type Culture Collection (ATCC) protocols. MCF-7 media was EMEM (Eagle Minimum
(§2) Essential Medium; ATCC) and P388 media is Dulbecco's modified Eagle's medium (DMEM, ATCC). Working media for MCF-7 and P388 is made by the addition of 50 ml FBS (fetal bovine serum, MCF-7) or 50 ml horse serum (ATCC, P388) to 450 ml EMEM media (MCF-7) or DMEM (P388). 4.5 g/L glucose (Sigma) is also added to the DMEM (P388). Five ml Penicillin/Streptomycin (P/S, Gibco) is added to the MCF-7 and P388 working media. Cells are grown at 37° C. in 5% CO2 for 1 week, and 25 ml fresh media is added. Cells are passaged when they reach a density of 1-2×10^6 cells/ml by transferring to a new flask containing fresh media.
(§3) Using sterile technique, MCF-7 cells are harvested from the T-75 flasks by removing and discarding the culture medium. 5 ml of 0.25% Trypsin-EDTA solution (Sigma) is added to each flask to de-attach the cells. The flask is placed in the incubator for 5-10 minutes to facilitate dispersal. 10 ml of complete growth medium is added, directly decanted into 50 ml tubes then centrifuged for 10 minutes at 200×g. P388 cells are harvested by directly decanting media into 50 ml tubes and centrifuging for 10 minutes at 200×g. The pellet (MCF-7 and P388) is resuspended in 5 ml and the cells dispersed by expelling gently through an 18 g needle fitted to a syringe. The cells are counted using a hemocytometer and diluted with media to 150,000 cells/ml. The diluted cells are pipetted into 96-well plates at a concentration of 15,000 cells/well in 100 μl. The plates are covered and incubated at 37° C. for 48 hours.
(§4) Dilutions of the anthracyclines and paclitaxel are made up in cell-specific serum-free media. The drugs at appropriate concentrations are added to all wells in 50 μl aliquots and the cells are grown in the presence of the drugs (anthracyclines/paclitaxel) for 24 hours. Tritiated thymidine (ICN) is diluted in serum-free cell-specific media to a concentration of 1 μCi/50 μl. All wells used for analysis are spiked with 50 μl aliquots of media containing tritiated thymidine. Following a 4-hour exposure to isotope, tritiated thymidine incorporation into DNA is measured by hypotonic lysis of cells with deionized water and collection of cellular contents onto Whatman GF-C filters using a Brandel cell harvester. Prior to harvesting MCF-7 cells, the media is aspirated, 150 μL of 0.25% Trypsin-EDTA is added to each well to de-attach the cells. Filters are allowed to dry, placed into 7 ml scintillation vials containing 5 ml scintillation cocktail and counted in a scintillation counter. In preliminary experiments, the concentrations of anthracyclines that would produce a 30% inhibition of growth (inhibitory concentration 30, IC30) on MCF-7 cells and 10% inhibition of growth (IC10) on P388 cells are determined.

P388 murine leukemia = test: in vivo anticancer activity in murine leukemia model, CD2F1 mice injected with P388 cells; settings: for Median survival time: 1 million P388 cells ip; for T/C % (median survival time of treated mice divided by that of control mice x 100): P388 ip
Method: Groups of CD2F1 mice are injected intraperitoneally (ip) with 1 million P388 cells. There were 10 mice per group. In the doxorubicin group 0.8 mg/kg is administered ip consecutively for 9 days on days 1-9 of the study. […] A control group is injected with vehicle. Median survival times are calculated for each group. Activity of a compound is expressed as the amount of prolonged survival (median survival of the treated group divided by the median survival time of the control group, multiplied by 100, T/C %).

[3] = optimum antitumor dose relative to doxorubicin; settings: in vivo
[4] = tested on: P388 murine leukemia cells; test: inhibition of growth of P388 cells in vitro (tritiated thymidine incorporation); settings: for IC10 for inhibition of growth: P388, 24 hours drug exposure
Method: as §1, §2, §3, §4

H9c2 cells = test: growth inhibition of non-cancerous H9c2 cells; assay type: cell-based; settings: Rattus norvegicus
breast cancer = breast cancer patients; cited from earlier work
[5] = H9c2, H9c2, anthracycline alone
[6] = H9c2, H9c2, in the presence of weak growth inhibitory concentrations of paclitaxel (IC10)

SMILES | cardiotoxicity with chronic dosing [1] | HCT % (hematocrit), Post [1] | IC30 for inhibition of growth [2] | fold increase in the cancer growth inhibition potency of paclitaxel [2] | Median survival time (P388 murine leukemia; drug ip on days 1-9, n = 10) | T/C % (median survival time of treated mice divided by that of control mice x 100) (P388 murine leukemia; drug ip on days 1-9, n = 10) | IC10 for inhibition of growth [4] | other results
COc1cccc2c1C(=O)c1c(O)c3c(c(O)c1C2=O)C[C@@](O)(CCO)C[C@@H]3OC1CC(N)C(O)C(C)O1 (stereo partly drawn) [Compound II, 13-deoxydoxorubicin] | devoid of cardiotoxicity | 23.8* % | 0.45 µM | 20 fold | 27 days | 142* % | 1.1 µM | Median survival time (P388 murine leukemia; drug ip on days 1-9, n = 10, listed as 13-deoxydoxorubicin): significant increase in median survival time; optimum antitumor dose relative to the dose of doxorubicin [3]: approximately twice; IC50 (H9c2 cells; [5]): 0.7 µM; IC50 (H9c2 cells; [6]): 0.4 µM
COc1cccc2c1C(=N)c1c(O)c3c(c(O)c1C2=O)C[C@@](O)(CCO)C[C@@H]3OC1CC(N)C(O)C(C)O1 (stereo partly drawn) [Compound III] | devoid of cardiotoxicity | 33.3* % | 0.75 µM | 220 fold | 27 days | 142* % | 3.5 µM | optimum antitumor dose relative to the dose of doxorubicin [3]: up to 7 times; IC50 (H9c2 cells; [5]): 1.5 µM; IC50 (H9c2 cells; [6]): 0.21 µM
CC[C@]1(O)Cc2c(O)c3c(c(O)c2[C@@H](OC2CC(N)C(O)C(C)O2)C1)C(=O)c1c(OC)cccc1C3=O (stereo partly drawn) [Compound V, 13-deoxydaunorubicin] | – | – | 0.645 µM | – | – | – | 0.7 µM | –
CC[C@]1(O)Cc2c(O)c3c(c(O)c2[C@@H](OC2CC(N)C(O)C(C)O2)C1)C(=N)c1c(OC)cccc1C3=O (stereo partly drawn) [Compound VI] | – | – | 0.875 µM | – | – | – | 1.7 µM | –
COc1cccc2c1C(=O)c1c(O)c3c(c(O)c1C2=O)C[C@@](O)(C(C)=O)C[C@@H]3OC1CC(N)C(O)C(C)O1 (stereo partly drawn) [Daunorubicin (IV), daunorubicin] | – | – | 0.75 µM | – | – | – | 0.3 µM | –
COc1cccc2c1C(=O)c1c(O)c3c(c(O)c1C2=O)C[C@@](O)(C(=O)CO)C[C@@H]3OC1CC(N)C(O)C(C)O1 (stereo partly drawn) [Doxorubicin (I), doxorubicin] | profound cardiotoxicity | 27.5* % | 0.1 µM | 2.8 fold | 28 days | 147* % | 0.25 µM | Histopathology Score ([1]; New Zealand white): 1.81*,^+; dF/dt (myocardial contractility of isolated atria) ([1]; New Zealand white): 15.1*,^+ gms/sec; FS % (left ventricular fractional shortening), Post ([1]; New Zealand white): 27.4*,^+ %; cumulative cardiotoxic dose ([1]; 1.25 mg/kg twice/week for 7 weeks): 17.5 mg/kg; Histopathology Score [1]: significantly increased; dF/dt (myocardial contractility of isolated atria) [1]: significantly reduced; FS % (left ventricular fractional shortening), Post [1]: statistically significant decrease; T/C % (median survival time of treated mice divided by that of control mice x 100) (P388 murine leukemia; drug ip on days 1-9, n = 10, listed as Doxorubicin): 147%; anticancer response rate (breast cancer): 35-50%; IC50 (H9c2 cells; H9c2, anthracycline alone): 0.21 µM
CC(=O)O[C@H]1C(=O)[C@@]2(C)[C@H]([C@H](OC(=O)c3ccccc3)[C@]3(O)C[C@H](OC(=O)[C@H](O)[C@@H](NC(=O)c4ccccc4)c4ccccc4)C(C)=C1C3(C)C)[C@]1(OC(C)=O)CO[C@@H]1C[C@@H]2O [Paclitaxel, paclitaxel] | – | – | – | – | – | – | – | growth inhibitory effect ([2]; MCF7, paclitaxel alone, 1 to 50 nM): no growth inhibitory effect; anticancer response rate (breast cancer): 32-62%; IC50 of paclitaxel for inhibition of growth ([4]; P388, paclitaxel alone or in the presence of the anthracycline at its IC10 concentration, mean ± standard error, n = 3): no inhibitory activity; also recorded: Inactive; growth inhibitory effect ([4]; P388, paclitaxel alone, concentrations up to 2000 nM): no growth inhibitory effect
